For assay [1], the target named is T1, AAK1 (Homo sapiens, UniProt Q2M2I8).
T1 construct: HA; expressed in transfected cells; host or cells: HEK293F
Briefly: P81 filter plate assay. Format: biochemical. Conditions: full-length human AAK1, Mu2 substrate. How it is done: Compounds were serially diluted into a Labcyte LDV plate (Labcyte, cat#LP-0200) using a Mutiprobe (PerkinElmer) and Biomek FX (Beckman Coulter) so that the highest compound concentration was at 96 μM. Compounds were then pinged (75 nL per well) into a Greiner 384-well reaction plate (Greiner, #781076) using an ECHO 550 Liquid Handler (Labcyte). A total of 12 μl reaction buffer (IMAP buffer containing Tween and DTT, from Molecular Devices) was then added to each well of columns 1 and 13 for the negative controls and 12 μl of 2×AAK1 (0.2 nM full-length human protein, NCBI accession no. NP_055726.2) was added to the remaining wells. Enzyme was then pre-incubated with compound for 10 minutes at RT. Reactions were initiated upon Minitrak (PerkinElmer) addition of 12 μl substrate mix containing 2×Mu2 (0.2 μM, full length human protein), 2× cold ATP (2 μM), and 1.3 μCi of hot ^33P-ATP. Reactions proceeded for one hour at RT. Meanwhile, Millipore 384-well P81 filter plates (Millipore, catalog #MZPHNOW10) were placed on a plate washer (Zoom ZW, from Titertek) and pre-wet with 50 μl 1% phosphoric acid. Kinase reactions were then stopped upon addition of 24 μl of 2% phosphoric acid to each well and the Minitrak was then used to transfer 40 μl from each well into the pre-wet Millipore 384-well P81 filter plates. Reaction mixtures were incubated for 10 minutes at RT in the P81 plates, followed by washing five times with 100 μl/well of 1% phosphoric acid using the Zoom filter washer. The bottom of each filter plate was sealed followed by addition of 20 μl Microscint 40 to each well, sealing the top of the plates with Flashplate cover, and then waiting one hour until reading on the TopCount (PerkinElmer).

For assay [2], the target named is T1, AAK1. Briefly: HEK281 cell-based assay (phospho-mu2 Western blot in transfected HEK293F cells). Conditions: 3 hours incubation, read-out: CBA IC50. The method in brief:
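HEK293F cells co-transfected with full-length human AAK1/HA and Flag/AP2M1 were treated next day with 5 compound concentrations (3-fold dilutions) in DMEM+0.5% FBS for 3 hours at 37° C. Lysates were Western blotted for phospho-mu2, with total mu2 detected by anti-Flag.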
(In general: In western blotting, separated proteins are transferred to a membrane and probed.)

T1 sequence (Q2M2I8 1-863 isoform Q2M2I8-2): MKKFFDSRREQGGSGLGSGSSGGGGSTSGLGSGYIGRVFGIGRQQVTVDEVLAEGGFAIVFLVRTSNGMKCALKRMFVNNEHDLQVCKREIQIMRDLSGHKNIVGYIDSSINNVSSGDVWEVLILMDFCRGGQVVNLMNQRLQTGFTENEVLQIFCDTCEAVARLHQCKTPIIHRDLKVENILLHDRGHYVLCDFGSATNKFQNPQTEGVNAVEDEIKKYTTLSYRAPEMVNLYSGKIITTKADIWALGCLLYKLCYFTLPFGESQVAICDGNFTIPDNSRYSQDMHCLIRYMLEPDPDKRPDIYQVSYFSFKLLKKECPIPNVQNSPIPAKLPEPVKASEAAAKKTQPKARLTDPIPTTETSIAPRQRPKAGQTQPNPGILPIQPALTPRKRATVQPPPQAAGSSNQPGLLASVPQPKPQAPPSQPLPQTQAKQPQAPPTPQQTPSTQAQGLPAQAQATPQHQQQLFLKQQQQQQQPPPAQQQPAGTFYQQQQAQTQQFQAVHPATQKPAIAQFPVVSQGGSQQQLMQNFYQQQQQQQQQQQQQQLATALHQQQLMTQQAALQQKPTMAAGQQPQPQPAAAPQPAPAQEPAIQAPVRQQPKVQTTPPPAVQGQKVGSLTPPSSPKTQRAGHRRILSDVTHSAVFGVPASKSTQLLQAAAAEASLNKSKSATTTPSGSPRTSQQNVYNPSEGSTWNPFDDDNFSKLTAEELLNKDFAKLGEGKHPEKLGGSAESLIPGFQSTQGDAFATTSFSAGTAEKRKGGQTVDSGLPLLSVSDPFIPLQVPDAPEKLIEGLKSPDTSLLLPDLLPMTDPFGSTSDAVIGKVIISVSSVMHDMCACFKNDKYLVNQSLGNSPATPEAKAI

Take `COCCOC(=O)N1CCN(c2ccc3ncc(-c4cccnc4OC)n3n2)CC1` [2-methoxyethyl 4-(3-(2-methoxypyridin-3-yl)imidazo[1,2-b]pyridazin-6-yl)piperazine-1-carboxylate]: the figures for the IC50 at AAK1 [1] and on AAK1 [2] were ≤ 10 nM and ≤ 100 nM, respectively.
The matching figures for `CC(C)(C)CC(=O)N1CCN(c2ccc3ncc(-c4ccccc4)n3n2)CC1` [3,3-dimethyl-1-(4-(3-phenylimidazo[1,2-b]pyridazin-6-yl)piperazin-1-yl)butan-1-one]: ≤ 10 nM and ≤ 100 nM.
The matching figures for `NCc1ccc(-c2cnc3ccc(NCC4CCCN4CC(F)(F)F)nn23)cc1` (stereo not shown) [3-(4-(aminomethyl)phenyl)-N-((1-(2,2,2-trifluoroethyl)pyrrolidin-2-yl)methyl)imidazo[1,2-b]pyridazin-6-amine]: ≤ 10 nM and ≤ 100 nM.
The matching figures for `Oc1cccc(-c2cnc3ccc(NCCOC4CCCC4)nn23)c1` [3-(6-((2-(cyclopentyloxy)ethyl)amino)imidazo[1,2-b]pyridazin-3-yl)phenol]: ≤ 10 nM and ≤ 1000 nM.
Consider `c1cc2c(cc1-c1cnc3ccc(NCCOC4CCCC4)nn13)OCO2` [3-(benzo[d][1,3]dioxol-5-yl)-N-(2-(cyclopentyloxy)ethyl)imidazo[1,2-b]pyridazin-6-amine], for which the IC50 is ≤ 100 nM at AAK1 [1] and ≤ 1000 nM on AAK1 [2].
`CC(C)(C)OC(=O)N1CCN(c2ccc3ncc(I)n3n2)CC1` [4-(3-Iodo-imidazo[1,2-b]pyridazin-6-yl)-piperazine-1-carboxylic acid tert-butyl ester]: the IC50 against AAK1 [1] is ≤ 10 nM; at AAK1 [2], ≤ 100 nM.
The corresponding values for `N#Cc1ccc(-c2cnc3ccc(NCCOC4CCCC4)nn23)s1` [5-(6-((2-(cyclopentyloxy)ethyl)amino)imidazo[1,2-b]pyridazin-3-yl)thiophene-2-carbonitrile] are ≤ 10 nM and ≤ 100 nM.
The corresponding values for `COc1ccccc1-c1cnc2ccc(N3CCN(C(=O)N4CCCCC4)CC3)nn12` [(4-(3-(2-methoxyphenyl)imidazo[1,2-b]pyridazin-6-yl)piperazin-1-yl)(piperidin-1-yl)methanone] are ≤ 10 nM and ≤ 100 nM.
The matching figures for `COc1ccccc1-c1cnc2ccc(N3CCN(C(=O)N4CCCC4)CC3)nn12` [(4-(3-(2-methoxyphenyl)imidazo[1,2-b]pyridazin-6-yl)piperazin-1-yl)(pyrrolidin-1-yl)methanone]: ≤ 10 nM and ≤ 100 nM.
Regarding `COc1ncccc1-c1cnc2ccc(N3CCN(C(=O)N4CCCCC4)CC3)nn12` [(4-(3-(2-methoxypyridin-3-yl)imidazo[1,2-b]pyridazin-6-yl)piperazin-1-yl)(piperidin-1-yl)methanone], the IC50 against AAK1 [1] is ≤ 10 nM; on AAK1 [2], ≤ 100 nM.
The matching figures for `COc1ncccc1-c1cnc2ccc(N3CCN(C(=O)N4CCCC4)CC3)nn12` [(4-(3-(2-methoxypyridin-3-yl)imidazo[1,2-b]pyridazin-6-yl)piperazin-1-yl)(pyrrolidin-1-yl)methanone]: ≤ 10 nM and ≤ 100 nM.
For the molecule `COc1cnccc1-c1cnc2ccc(N3CCN(C(=O)N4CCCC4)CC3)nn12` [(4-(3-(3-methoxypyridin-4-yl)imidazo[1,2-b]pyridazin-6-yl)piperazin-1-yl)(pyrrolidin-1-yl)methanone], the 50% inhibitory concentration (IC50) on AAK1 [1] was ≤ 10 nM; on AAK1 [2], ≤ 100 nM.
On to `O=C(N1CCCCC1)N1CCN(c2ccc3ncc(-c4ccccc4)n3n2)CC1` [(4-(3-phenylimidazo[1,2-b]pyridazin-6-yl)piperazin-1-yl)(piperidin-1-yl)methanone], for which the IC50 was ≤ 10 nM against AAK1 [1] and ≤ 100 nM on AAK1 [2].
The corresponding values for `O=C(N1CCCC1)N1CCN(c2ccc3ncc(-c4ccccc4)n3n2)CC1` [(4-(3-phenylimidazo[1,2-b]pyridazin-6-yl)piperazin-1-yl)(pyrrolidin-1-yl)methanone] are ≤ 10 nM and ≤ 1000 nM.
The corresponding values for `Cc1nc(C)c(-c2cnc3ccc(NC[C@@H]4CCCN4C(=O)CC(C)C)nn23)s1` [(S)-1-(2-(((3-(2,4-dimethylthiazol-5-yl)imidazo[1,2-b]pyridazin-6-yl)amino)methyl)pyrrolidin-1-yl)-3-methylbutan-1-one] are ≤ 10 nM and ≤ 10 nM.
The matching figures for `CC(C)CC(=O)N1CCC[C@H]1CNc1ccc2ncc(-c3cccc(Cl)c3)n2n1` [(S)-1-(2-(((3-(3-chlorophenyl)imidazo[1,2-b]pyridazin-6-yl)amino)methyl)pyrrolidin-1-yl)-3-methylbutan-1-one]: ≤ 10 nM and ≤ 10 nM.
For `CC(C)OC(=O)N(C)[C@H]1CCN(c2ccc3ncc(-c4ccncc4)n3n2)C1` [(S)-isopropyl methyl(1-(3-(pyridin-4-yl)imidazo[1,2-b]pyridazin-6-yl)pyrrolidin-3-yl)carbamate], the IC50 against AAK1 [1] was ≤ 100 nM.
The same measure, in the same setting: the figure for `CCCOC(=O)N1CCC[C@H]1CNc1ccc2ncc(Br)n2n1` [(S)-propyl 2-(((3-bromoimidazo[1,2-b]pyridazin-6-yl)amino)methyl)pyrrolidine-1-carboxylate] is ≤ 10 nM; for `CN(C(=O)OC(C)(C)C)[C@H]1CCN(c2ccc3ncc(-c4cccnc4)n3n2)C1` [(S)-tert-butyl methyl(1-(3-(pyridin-3-yl)imidazo[1,2-b]pyridazin-6-yl)pyrrolidin-3-yl)carbamate] it is ≤ 10 nM.
Still for that read-out and setting: the figure for `CN(C(=O)C1CCCC1)[C@H]1CCN(c2ccc3ncc(-c4cccnc4O)n3n2)C1` [Cyclopentanecarboxylic acid {(S)-1-[3-(2-hydroxy-pyridin-3-yl)-imidazo[1,2-b]pyridazin-6-yl]-pyrrolidin-3-yl}-methyl-amide] is ≤ 100 nM.
Still for that read-out and setting: the figure for `COC(=O)c1cnn(-c2ccc3ncc(Br)n3n2)c1` [Methyl 1-(3-bromoimidazo[1,2-b]pyridazin-6-yl)-1H-pyrazole-4-carboxylate] is ≤ 100 nM; for `COc1cccc(-c2cnc3ccc(NCCOC4CCCC4)nn23)c1` [N-(2-(cyclopentyloxy)ethyl)-3-(3-methoxyphenyl)imidazo[1,2-b]pyridazin-6-amine] it is ≤ 100 nM; for `Cc1csc(-c2cnc3ccc(NCCOC4CCCC4)nn23)c1` [N-(2-(cyclopentyloxy)ethyl)-3-(4-methylthiophen-2-yl)imidazo[1,2-b]pyridazin-6-amine] it is ≤ 100 nM.
For `Cc1ccc(-c2cnc3ccc(NCCOC4CCCC4)nn23)s1` [N-(2-(cyclopentyloxy)ethyl)-3-(5-methylthiophen-2-yl)imidazo[1,2-b]pyridazin-6-amine], on AAK1 [1], the IC50 is ≤ 100 nM.
For the molecule `c1csc(-c2cnc3ccc(NCCOC4CCCC4)nn23)c1` [N-(2-(cyclopentyloxy)ethyl)-3-(thiophen-2-yl)imidazo[1,2-b]pyridazin-6-amine], the IC50 on AAK1 [1] is ≤ 10 nM.
Take `c1cc(-c2cnc3ccc(NCCOC4CCCC4)nn23)cs1` [N-(2-(cyclopentyloxy)ethyl)-3-(thiophen-3-yl)imidazo[1,2-b]pyridazin-6-amine]: the IC50 at AAK1 [1] is ≤ 100 nM.
Still for that read-out and setting: the figure for `CC(C)NC(=O)N1CCN(c2ccc3ncc(-c4ccccc4)n3n2)CC1` [N-Isopropyl-4-(3-phenylimidazo[1,2-b]pyridazin-6-yl)piperazine-1-carboxamide] is ≤ 10 nM; for `COc1cnccc1-c1cnc2ccc(NC3CCCCC3)nn12` [N-cyclohexyl-3-(3-methoxypyridin-4-yl)imidazo[1,2-b]pyridazin-6-amine] it is ≤ 10 nM.
Still for that read-out and setting: the figure for `CC(C)OC(=O)N(C)[C@H]1CCN(c2ccc3ncc(Br)n3n2)C1` [[(S)-1-(3-Bromo-imidazo[1,2-b]pyridazin-6-yl)-pyrrolidin-3-yl]-methyl-carbamic acid isopropyl ester] is ≤ 10 nM; for `CCOC(=O)N1CCN(c2ccc3ncc(C(=O)NC)n3n2)CC1` [ethyl 4-(3-(methylcarbamoyl)imidazo[1,2-b]pyridazin-6-yl)piperazine-1-carboxylate] it is ≤ 100 nM; for `CC(=O)c1cnc2ccc(N3CCN(C(=O)OC(C)C)CC3)nn12` [isopropyl 4-(3-acetylimidazo[1,2-b]pyridazin-6-yl)piperazine-1-carboxylate] it is ≤ 100 nM.
On the same count and under the same terms, then `COC(=O)c1cnn(-c2ccc3ncc(-c4cccnc4OC)n3n2)c1` [methyl 1-(3-(2-methoxypyridin-3-yl)imidazo[1,2-b]pyridazin-6-yl)-1H-pyrazole-4-carboxylate], with ≤ 10 nM.
As for `COc1ncccc1-c1cnc2ccc(N3CC(N(C)C(=O)OC(C)(C)C)C3)nn12` [tert-butyl (1-(3-(2-methoxypyridin-3-yl)imidazo[1,2-b]pyridazin-6-yl)azetidin-3-yl)(methyl)carbamate], the IC50 at AAK1 [1] was ≤ 1000 nM.

For orientation: IC50 means the concentration that gives 50% inhibition.

For the origin of these results see patent US8969565B2, “Imidazo[1,2-b]pyridazine-based compounds, compositions comprising them, and methods of their use” (Lexicon Pharmaceuticals, Inc., priority 2012, dated 2015).
